Values after ≈ are worked out from the molar mass of the structure shown.
How the values were obtained:
[1] = system: Mycobacterium tuberculosis; assay: Antitubercular activity against Mycobacterium tuberculosis H37Rv measured after 7 days by MABA method; assay type: functional; settings: 168 h, time 7 day
[2] = Cytotoxicity against mouse RAW264.7 cells assessed as decrease cell viability at 50 ug/ml measured after 48 hrs by MTT assay; assay type: cell-based; settings: at 50 µg/mL, read-out: INH
[3] = biological target: T1, Enoyl-[acyl-carrier-protein] reductase [NADH] (Mycobacterium tuberculosis) (UniProt P9WGR1); assay: Inhibition of wild type InhA in Mycobacterium tuberculosis H37Rv using trans-2-dodecenoyl-coenzyme A as substrate at 5 uM
T1 sequence (whole entry): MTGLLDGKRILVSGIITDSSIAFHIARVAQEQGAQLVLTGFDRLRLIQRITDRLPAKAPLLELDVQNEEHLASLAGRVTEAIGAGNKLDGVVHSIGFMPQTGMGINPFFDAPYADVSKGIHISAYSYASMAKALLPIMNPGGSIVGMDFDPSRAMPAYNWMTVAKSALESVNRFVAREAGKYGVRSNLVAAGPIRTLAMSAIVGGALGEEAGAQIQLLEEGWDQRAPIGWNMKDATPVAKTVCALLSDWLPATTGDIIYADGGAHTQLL

[4] = system: Mycobacterium tuberculosis; assay: Antitubercular activity at Mycobacterium tuberculosis H37Rv in nutrition starved condition medium assessed as log reduction of cell growth at 10 ug/ml measured after 7 days by MPN method; assay type: functional; settings: dose 10 µg/ml; time 7 day
[5] = Solubility of compound in aqueous buffer at pH 6.8; assay type: physicochemical

SMILES	MIC [1] [µM]	cytotoxicity at 48 h, 50 ug/ml [2] [%]	inhibition [3] [%]	FC [4]	solubility [5]
Cc1ccc(/C=N/Nc2nsc(Nc3ccc(I)cc3)n2)cc1	3.59 (≈ 1.56 µg/mL)	21.1			
Cc1ccc(/C=N/Nc2nsc(Nc3ccc(Br)cc3)n2)cc1	> 64.4				
Fc1ccc(Nc2nc(N/N=C/c3ccccc3)ns2)cc1	> 79.9				
Cc1ccc(/C=N/Nc2nsc(Nc3ccc(Cl)cc3Cl)n2)cc1	8.27 (≈ 3.13 µg/mL)	33.1	48		
CO[C@H]1/C=C/O[C@@]2(C)Oc3c(C)c(O)c4c(O)c(c(/C=N/N5CCN(C)CC5)c(O)c4c3C2=O)NC(=O)/C(C)=C\C=C\[C@H](C)[C@H](O)[C@@H](C)[C@@H](O)[C@@H](C)[C@H](OC(C)=O)[C@@H]1C [RIFAMPIN]	0.12 (≈ 0.0988 µg/mL)			1.6	
Cc1ccc(Nc2nc(N/N=C/c3ccccc3)ns2)cc1	2.52 (≈ 0.78 µg/mL)	31.5	48	2.4	
Brc1ccc(Nc2nc(N/N=C/c3ccccc3)ns2)cc1	4.17 (≈ 1.56 µg/mL)	25.8	39		
FC(F)(F)c1ccc(Nc2nc(N/N=C/c3ccccc3)ns2)cc1	34.4 (≈ 12.5 µg/mL)				
Cc1ccc(/C=N/Nc2nsc(Nc3ccc(C(F)(F)F)cc3)n2)cc1	16.6 (≈ 6.26 µg/mL)	29.1	35		
Ic1ccc(Nc2nc(N/N=C/c3ccccc3)ns2)cc1	59.4 (≈ 25 µg/mL)				Insoluble
COc1ccc(Nc2nc(N/N=C/c3ccccc3)ns2)cc1	2.4 (≈ 0.781 µg/mL)	24.6		2.2	
Cc1ccc(/C=N/Nc2nsc(Nc3ccc(F)cc3)n2)cc1	> 76.5		26		
O=[N+]([O-])c1ccc(Nc2nc(N/N=C/c3ccccc3)ns2)cc1	73.5 (≈ 25 µg/mL)				
CC[C@@H](CO)NCCN[C@@H](CC)CO [ETHAMBUTOL]	7.6 (≈ 1.55 µg/mL)				
C(=N\Nc1nsc(Nc2ccccc2)n1)/c1ccccc1	> 84.8				
Cc1ccc(/C=N/Nc2nsc(Nc3ccccc3)n2)cc1	> 80.9				
COc1ccc(Nc2nc(N/N=C/c3ccc(C)cc3)ns2)cc1	> 73.8				
Cc1ccc(/C=N/Nc2nsc(Nc3ccc(C)cc3)n2)cc1	> 77.4				
Clc1ccc(Nc2nc(N/N=C/c3ccccc3)ns2)c(Cl)c1	4.29 (≈ 1.56 µg/mL)				
NNC(=O)c1ccncc1 [ISONIAZID]	0.36 (≈ 0.0494 µg/mL)			1.4	
Cc1ccc(/C=N/Nc2nsc(Nc3ccc([N+](=O)[O-])cc3)n2)cc1	> 70.6				
